“Also recorded” adds a separate entry of the source. Counter-ions that a name gives are not always drawn.
Tests used:
[1] = target: T1, gelatinase B from neutrophils (Homo sapiens, UniProt P14780); experiment: gelatinase (inhibitor) microtiter plate assay with biotinylated gelatin; type: biochemical; design: endogenous in cells; host or cells: human neutrophils stimulated with lipopolysaccharide; conditioned medium; conditions: for gelatinase B inhibitory activity in the plate assay (in words): qualitative statements
Method: The measurement of gelatinase activity was based on the detection of non-degraded biotinylated gelatin with a streptavidin-peroxidase conjugate. This test is based on the biotin-avidin method described by Sorbi et al. (25) but modified to a one plate assay (schematically represented in Fig. 1.). Gelatin (1mg/ml) was dissolved in 0.1 M sodium bicarbonate pH 8.3 by heating to 40°C. Biotin-N-hydroxysuccinimide ester was dissolved in dimethylsulfoxide (Me2SO) and was added to the gelatin in a 15-fold molar excess. The mixture was allowed to react overnight at 4°C and the biotinylated gelatin was then dialyzed against phosphate buffered saline (PBS). Neutrophil granulocyte (Neu) medium was collected from human neutrophils after stimulation with lipopolysaccharide (1µg/ml) overnight at 37°C in Minimal Essential Medium. Cells were removed by 10 min centrifugation at 1000 g. Purified gelatinase was obtained by one-step affinity chromatography of neutrophil medium on a gelatin-sepharose column as described (8).
Modified flat bottom 96-well ELISA plates were coated overnight with 0.5 µg/ml avidin in distilled water. The plates were then blocked with 0.3% bovine serum albumin (BSA, Sigma) in PBS for 1 hour at 37°C. Biotinylated gelatin was diluted to 50 µg/ml and 100µl was added to the avidin-coated wells. After incubation for one hour at 20°C, the plate was rinsed with PBS. Medium containing the secreted gelatinases from human neutrophils (dilution range 1/3-1/3^11) and the inhibitors were diluted in incubation buffer (50 mM Tris-HCl pH 7.5, 10 mM CaCl2, 0.02% (W/V) NaN3, 1% (V/V) Triton X-100) and 100 µl of each were mixed. 190 µl of the mixture was added to the gelatin-coated plates and allowed to digest the gelatin overnight at 37°C. The plates were then washed with PBS and each well was incubated with 100 µl peroxidase-conjugated-streptavidin at a 1:2000 dilution for 1 hour at 37°C. After rinsing the plate, the ABTS substrate was added (0.5 mg/ml solution containing 0.1 M citric acid, 0.2 M Na2HPO4, pH 4.3, 0.07 µl/ml 30% H2O2) and the optical density was read at 405 nm after 10 min. incubation at room temperature. Additional information on published test systems used here for comparison.
Gelatin is biotinylated and bound to avidin-coated microtiter plates. By addition of gelatinases the number of free biotin groups decreases and proportionally less streptavidin-peroxidase is bound to the residual substrate. Bound streptavidin-peroxidase activity is measured spectrophotometrically by reaction of peroxide with ABTS. Inhibition of gelatinase is obtained by the addition of inhibitor to a known amount of gelatinase prior to application to the plates. The peroxidase activity increases proportionally with the inhibitory activity.
Plates were first coated with 10µg/ml avidin and 50µg/ml biotinylated gelatin (theoretically saturating the avidin binding sites). As the sensitivity of the assay is dependent on the detection of the minimal amount of degraded biotinylated gelatin, we investigated wether decreasing the amount of biotin-gelatin (50 µg/ml-23 ng/ml) bound to the avidin-coated (10µg/ml) plate increased the sensitivity of the assay. […] Thus it was verified whether a decrease in the avidin coating could make the assay more sensitive (Fig. 2). […] In all further examples plates were coated with 0.5 µg/ml avidin and 50 µg/ml gelatin-biotin.
The titration curves of gelatinase inhibition were always related to a blanc curve and this for enzyme concentrations within the slope of the curve (vertical dotted lines Fig. 3). The decrease in enzyme activity to which the inhibitor-incubated sample corresponded was defined as the inhibition factor (IF).

[2] = target: T1, gelatinase B from neutrophils; experiment: zymography inhibition assay, inhibitor in developing buffer; type: biochemical; design: The 92 kDa neutrophil gelatinase is indicated with an arrowhead; endogenous in cells; host or cells: human neutrophils; purified from conditioned medium on gelatin-Sepharose; conditions: qualitative statements
Method: Quantitative zymography was performed as described (7,8). Briefly, 40 µl of loading buffer was added to 40 µl of each sample and applied on 7.5% polyacrylamide gels which had been co-polymerised with 0.1% (w/v) gelatin. Stacking gels contained 5% polyacrylamide. The gels were run at 4°C for 16h at 90V. The gels were then incubated in washing buffer (50 mM Tris-HCl pH 7.5, 10mM CaCl2, O.O2% (W/V) NaN3, 2.5% (v/v) Triton X-100) at room temperature, 2x20 min to remove sodium dodecyl sulfate and overnight in developing buffer (50 mM Tris-HCl pH 7.5, 10mM CaCl2, O.O2% (w/v) NaN3, 1% (v/v) Triton X-100) at 37°C. The gels were then stained in Coomassie brilliant blue R-250 and destained in methanol/acetic acid. The sites of gelatinase activity appeared as unstained bands on a blue background and were quantified by computerised image analysis through scanning densitometry with a PDI scanner (Pharmacia, Belgium) and the PDI software package. For inhibition experiments, the inhibitors were dissolved in the developing buffer at the appropriate concentration. […] The enzyme activity was developed by staining of the substrate with Coomassie blue and quantification of the substrate digestion by scanning densitometry. […] The enzyme activity was developed by staining of the substrate with Coomassie blue and quantification of the substrate digestion by scanning densitometry. […]

[3] = tetracycline concentration 1.67 mg/ml
[4] = tetracycline concentration 3.33 mg/ml
[5] = tetracycline concentration 3.33 mg/ml, HCl
[6] = tetracycline concentration 0,83 mg/ml

T1 sequence (P14780 94-707): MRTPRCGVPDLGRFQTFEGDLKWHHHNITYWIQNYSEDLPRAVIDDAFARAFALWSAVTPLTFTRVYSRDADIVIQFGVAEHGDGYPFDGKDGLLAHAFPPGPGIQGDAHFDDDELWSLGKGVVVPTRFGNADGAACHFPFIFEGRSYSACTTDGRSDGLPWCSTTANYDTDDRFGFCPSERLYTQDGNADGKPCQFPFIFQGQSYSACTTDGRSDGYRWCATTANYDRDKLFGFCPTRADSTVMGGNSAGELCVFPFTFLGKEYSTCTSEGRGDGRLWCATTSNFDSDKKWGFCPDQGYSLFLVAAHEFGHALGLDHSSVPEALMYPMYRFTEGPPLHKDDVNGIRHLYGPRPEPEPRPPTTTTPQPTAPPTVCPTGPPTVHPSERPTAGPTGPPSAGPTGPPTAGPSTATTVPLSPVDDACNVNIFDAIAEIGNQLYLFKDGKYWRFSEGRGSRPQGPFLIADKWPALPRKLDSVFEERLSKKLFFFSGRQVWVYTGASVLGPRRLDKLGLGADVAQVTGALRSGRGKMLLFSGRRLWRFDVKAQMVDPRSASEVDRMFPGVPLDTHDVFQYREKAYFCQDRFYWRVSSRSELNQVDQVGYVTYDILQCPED

Row | Molecule | Inhibition factor (IF) [1, 3] | Inhibition factor (IF) [1, 4] | gelatinase B inhibitory activity in the plate assay (in words) [1] | Inhibition factor (IF) [1, 6] | also measured
1 | 4-epitetracycline HCl | 3 | – | – | – | –
2 | 7-aminominocycline HCl | – | precipitation | – | – | –
3 | Cc1c2c(c(O)c3c(O)ccc(Cl)c13)C(=O)C1(O)C(O)=C(C(N)=O)C(=O)C(N(C)C)C1C2 (centres unmarked) [4-epianhydrochlortetracycline HCl] | – | – | less active | – | Inhibition factor (IF) [1, 5]: 3
4 | Cc1c2c(c(O)c3c(O)cccc13)C(=O)C1(O)C(O)=C(C(N)=O)C(=O)C(N(C)C)C1C2 (centres unmarked) [4-epianhydrotetracycline HCl] | 3 | precipitation | more active | 2 | –
5 | CN(C)C1C(=O)C(C(N)=O)=C(O)C2(O)C(=O)C3=C(O)c4c(O)ccc(Cl)c4C(C)(O)C3CC12 (centres unmarked) [4-epichlortetracycline HCl] | 9 | precipitation | less active | 3 | –
6 | CN(C)c1ccc(O)c2c1C[C@H]1C[C@H]3[C@@H](N(C)C)C(O)=C(C(N)=O)C(=O)[C@@]3(O)C(O)=C1C2=O [4-epiminocycline HCl] | – | 3 | less active | – | –
7 | CN(C)C1C(=O)C(C(N)=O)=C(O)C2(O)C(=O)C3=C(O)c4c(O)cccc4C(C)(O)C3C(O)C12 (centres unmarked) [4-epioxytetracyline base] | 3 | 20 | more active | – | –
8 | CN(C)[C@@H]1C(O)=C(C(N)=O)C(=O)[C@@]2(O)C(O)=C3C(=O)c4c(O)cccc4C[C@H]3C[C@@H]12.Cl [6-deoxy-6-demethyltetracycline HCl] | 5 | 8 | – | 3 | –
9 | Cc1c2c(c(O)c3c(O)ccc(Cl)c13)C(=O)C1(O)C(O)=C(C(N)=O)C(=O)C(N(C)C)C1C2 (centres unmarked) [anhydrochlortetracycline HCl] | – | – | – | – | Inhibition factor (IF) ([1]; tetracycline concentration 1.67 mg/ml, HCl): 2; Inhibition factor (IF) [1, 5]: 6
10 | CN(C)[C@@H]1C(O)=C(C(N)=O)C(=O)[C@@]2(O)C(O)=C3C(=O)c4c(O)ccc(Cl)c4[C@@](C)(O)[C@H]3C[C@@H]12 [chlortetracycline HCl] | 27 | 45 | – | 9 | gelatinase B inhibitory activity in the plate assay (in words) ([1]; listed as Chlortetracycline HCl, HCl): most potent inhibitor; gelatinase B inhibitory activity in the plate assay (in words) ([1]; listed as Chlortetracycline, HCl): more active as a gelatinase inhibitor than the antibiotically more potent minocycline; also recorded: much more active than tetracycline; also recorded: most active
11 | CN(C)[C@@H]1C(O)=C(C(N)=O)C(=O)[C@@]2(O)C(O)=C3C(=O)c4c(O)ccc(Cl)c4[C@@H](O)[C@H]3C[C@@H]12 [demethylchlortetracycline HCl] | – | – | not active | – | –
12 | C[C@H]1c2cccc(O)c2C(=O)C2=C(O)[C@]3(O)C(=O)C(C(N)=O)=C(O)[C@@H](N(C)C)[C@@H]3[C@@H](O)[C@@H]21 [doxycycline hyclate] | – | – | not active | – | –
13 | CN(C)[C@@H]1C(=O)C(C(N)=O)=C(O)[C@@]2(O)C(=O)C[C@@H]([C@]3(C)OC(=O)c4c(O)ccc(Cl)c43)C[C@@H]12 [isochlortetracycline HCl] | – | 3 | – | – | –
14 | C=C1c2cccc(O)c2C(=O)C2=C(O)[C@]3(O)C(=O)C(C(N)=O)=C(O)[C@@H](N(C)C)[C@@H]3[C@@H](O)[C@H]12 [metacycline HCl] | 8 | 27 | very active | 3 | –
15 | CN(C)c1ccc(O)c2c1C[C@H]1C[C@H]3[C@H](N(C)C)C(O)=C(C(N)=O)C(=O)[C@@]3(O)C(O)=C1C2=O [minocycline HCl] | 3 | 8 | – | – | gelatinase B inhibitory activity in the plate assay (in words) ([1]; listed as minocyclin, HCl): active as an inhibitor; gelatinase B inhibitory activity in the plate assay (in words) ([1]; listed as minocycline, HCl): confirmed in the plate assay; also recorded: active; inhibition of gelatinase B on zymography (in words) [2]: inhibits gelatinase B in a dose-dependent way
16 | CN(C)[C@@H]1C(O)=C(C(N)=O)C(=O)[C@@]2(O)C(O)=C3C(=O)c4c(O)cccc4[C@@](C)(O)[C@H]3C[C@@H]12 [tetracycline HCl] | 3 | 8 | – | – | –

From patent EP0733369A1, “Protease inhibitors, a DNA construct for the expression of a protease and a process for measuring proteases and/or protease inhibitors” (Stichting REGA V.Z.W., priority 1995, dated 1996)
